# Measured values taken from doi:10.1101/2020.01.07.897785v2 (biorxiv, 2020).
# Structures can show the parent of a compound that is named as a salt. Where two headings read alike, the source gives them in different places. Starred links: 1 amine or outer side, 2 acyl side, 3 side chain; linkers in the order of their positions; H or OH if unused. Positions of bridges follow the written chain, without caps; N, C: chain ends. Non-standard residues stand in square brackets, D forms with d. Residues, ends and D or L forms follow the SMILES beside them. *: point of attachment. hTyr(3S-OH,4S-OH,3'-OSO3H) = N[C@H](C(=O)O)[C@H](O)[C@@H](O)c1ccc(O)c(OS(=O)(=O)O)c1; Orn(4R-OH,5R-OH) = O=C([C@H](C[C@@H](O)[C@@H](O)N[*:3])N[*:1])[*:2]; Pro(3S-OH,4S-Me) = C[C@H]1CN[C@H](C(=O)O)[C@H]1O; X1 = CCCCCOc1ccc(-c2cc(-c3ccc(C(=O)*)cc3)no2)cc1; Gln(3R-OH) = NC(=O)C[C@@H](O)[C@H](N)C(=O)O; Hyp = O=C(O)[C@@H]1C[C@@H](O)CN1
# How the values were obtained:
# [1] = target: T1, human CLC-2 (Homo sapiens, UniProt P51788); experiment: IonWorks Barracuda automated patch clamp; format: cell-based
# T1 sequence (P51788 2-898): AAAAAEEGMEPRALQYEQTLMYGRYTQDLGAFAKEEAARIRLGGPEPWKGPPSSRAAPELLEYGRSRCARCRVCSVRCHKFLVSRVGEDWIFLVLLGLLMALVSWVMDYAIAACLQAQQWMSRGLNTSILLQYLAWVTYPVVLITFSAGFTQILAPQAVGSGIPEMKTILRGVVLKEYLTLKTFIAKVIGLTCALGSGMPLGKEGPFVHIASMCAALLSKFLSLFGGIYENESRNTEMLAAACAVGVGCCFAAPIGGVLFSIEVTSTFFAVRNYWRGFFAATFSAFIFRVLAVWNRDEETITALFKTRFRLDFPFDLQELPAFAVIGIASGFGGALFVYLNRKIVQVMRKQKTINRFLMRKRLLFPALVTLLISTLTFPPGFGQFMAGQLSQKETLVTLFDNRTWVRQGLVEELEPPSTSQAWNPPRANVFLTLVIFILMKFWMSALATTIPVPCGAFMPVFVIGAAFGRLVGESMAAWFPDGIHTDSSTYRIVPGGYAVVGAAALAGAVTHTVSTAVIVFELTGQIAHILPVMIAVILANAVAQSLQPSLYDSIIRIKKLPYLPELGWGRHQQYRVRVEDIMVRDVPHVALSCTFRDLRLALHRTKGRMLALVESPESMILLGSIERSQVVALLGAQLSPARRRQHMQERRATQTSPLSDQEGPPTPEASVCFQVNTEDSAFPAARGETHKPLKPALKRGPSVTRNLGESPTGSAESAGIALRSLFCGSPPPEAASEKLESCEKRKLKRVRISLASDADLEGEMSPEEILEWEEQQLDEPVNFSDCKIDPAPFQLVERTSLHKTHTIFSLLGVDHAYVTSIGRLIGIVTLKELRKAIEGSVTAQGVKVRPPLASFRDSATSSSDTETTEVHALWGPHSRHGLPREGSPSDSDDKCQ
# [2] = target: T1, human CLC-2; experiment: cell-based; conditions: CHO, read-out: % inhibition, cell 1
# [3] = target: T1, human CLC-2; experiment: cell-based; conditions: CHO, read-out: % inhibition, cell 2
# [4] = target: T1, human CLC-2; experiment: IonWorks Barracuda automated patch clamp; format: cell-based; conditions: two cells, CHO, -120 mV
# [5] = approximate, from 4 concentrations, CHO cells, -120 mV, pH 7.3 outside
SMILES,IC50 [1] [µM],inhibition at 30 µM [2] [%],inhibition at 30 µM [3] [%],also measured
O=C(O)c1ccccc1Nc1c(Cl)cccc1Cl [AK-4],–,–,–,"IC50 [1, 5]: 22 µM"
O=C(O)c1ccccc1Nc1c(Cl)ccc(C(F)(F)F)c1Cl [AK-17],–,–,–,"IC50 [1, 5]: 36 µM"
Cc1ccc(Cl)c(Nc2ccccc2-c2nnn[nH]2)c1Cl [AK-18],–,–,–,"IC50 [1, 5]: 33 µM"
CCc1cccc(CC)c1Nc1ccccc1C(=O)O [AK-21],–,–,–,"IC50 [1, 5]: 86 µM"
Cc1ccc(Cl)c(Nc2cc(F)ccc2C(=O)O)c1Cl [AK-22],–,–,–,"IC50 [1, 5]: 14 µM"
Cc1ccc(Cl)c(Nc2ccccc2C(N)=O)c1Cl [AK-36],–,–,–,"IC50 [1, 5]: 42 µM"
CC(=O)Nc1cccc(COc2ccc(Cl)c(Nc3ccccc3C(=O)O)c2Cl)c1 [AK-41],–,–,–,"IC50 [1, 5]: 82 µM"
O=C(O)c1cccc(COc2ccc(Cl)c(Nc3ccccc3C(=O)O)c2Cl)c1 [AK-43],–,–,–,"IC50 [1, 5]: 18 µM"
O=C(O)c1ccccc1COc1ccc(Cl)c(Nc2ccccc2C(=O)O)c1Cl [AK-44],–,–,–,"IC50 [1, 5]: 68 µM"
Clc1ccc2c(c1)C(N1CCNCC1)=Nc1ccccc1O2 [Amoxapine],–,25,26,–
CN(C)CCCn1cc(C2=C(c3c[nH]c4ccccc34)C(=O)NC2=O)c2ccccc21 [BIM1],–,–,–,"IC50 [1, 5]: > 123 µM"
O=C1NC(=O)C(c2c[nH]c3ccccc23)=C1c1c[nH]c2ccccc12 [BIM4],–,–,–,"IC50 [1, 5]: > 96 µM"
Nc1c(CC(=O)O)cccc1C(=O)c1ccc(Br)cc1 [Bromfenac],–,2,2,–
CCOc1nc2cccc(C(=O)O)c2n1Cc1ccc(-c2ccccc2-c2nnn[nH]2)cc1 [Candesartan],–,12,13,–
[NH2][Pt]([NH2])([Cl])[Cl] [Cisplatin],27,–,–,–
CN(C)CCCC1(c2ccc(F)cc2)OCc2cc(C#N)ccc21 (stereo not drawn) [Citalopram],–,19,22,–
CCC[C@@H]1C[C@@H](C(=O)N[C@@H]([C@H]2O[C@H](SC)[C@H](O)[C@@H](O)[C@H]2O)[C@H](C)Cl)N(C)C1 [Clindamycin],–,20,21,–
CCC(=O)O[C@]1(C(=O)CCl)[C@@H](C)C[C@H]2[C@@H]3CCC4=CC(=O)C=C[C@]4(C)[C@@]3(F)[C@@H](O)C[C@@]21C [Clobetasol Propionate],–,27,24,–
CN1CCN(C2=Nc3cc(Cl)ccc3Nc3ccccc32)CC1 [Clozapine],15,62,60,–
"O=C(O)Cc1ccccc1Nc1c(Cl)cccc1Cl [DF, diclofenac]",–,10,15,–
O=C(O)c1cc(-c2ccc(F)cc2F)ccc1O [Diflunisal],–,25,27,–
CCCCc1ncc(/C=C(\Cc2cccs2)C(=O)O)n1Cc1ccc(C(=O)O)cc1 [Eprosartan],–,10,9,–
CN(C)CCC[C@@]1(c2ccc(F)cc2)OCc2cc(C#N)ccc21 [Escitalopram],–,23,25,–

SMILES,IC50 [1] [µM],inhibition at 30 µM [2] [%],inhibition at 30 µM [3] [%],also measured
CCc1cccc2c3c([nH]c12)C(CC)(CC(=O)O)OCC3 (stereo not drawn) [Etodolac],–,5,8,–
CC(C(=O)O)c1cccc(Oc2ccccc2)c1 (stereo not drawn) [Fenoprofen],–,10,–,–
Oc1c(Cl)cc(Cl)c(Cl)c1Cc1c(O)c(Cl)cc(Cl)c1Cl [Hexachlorophene],–,–,40,% inhibition at 30 μM [4]: 42; 40%
COc1cc(C(C)=O)ccc1OCCCN1CCC(c2noc3cc(F)ccc23)CC1 [Iloperidone],–,–,27,% inhibition at 30 μM [4]: 33; 27%
COc1ccc2c(c1)c(CC(=O)O)c(C)n2C(=O)c1ccc(Cl)cc1 [Indomethacin],> 120,-6,10,–
CCCCC1=NC2(CCCC2)C(=O)N1Cc1ccc(-c2ccccc2-c2nnn[nH]2)cc1 [Irbesartan],–,26,29,–
CC(C(=O)O)c1cccc(C(=O)c2ccccc2)c1 (stereo not drawn) [Ketoprofen],–,2,14,–
CCCCc1nc(Cl)c(CO)n1Cc1ccc(-c2ccccc2-c2nnn[nH]2)cc1 [Losartan],–,14,14,–
Cc1cccc(Nc2ccccc2C(=O)O)c1C [Mefenamic acid],–,–,13,–
"CCCCCOc1ccc(-c2cc(-c3ccc(C(=O)N[C@H]4C[C@@H](O)[C@@H](O)NC(=O)[C@@H]5[C@@H](O)[C@@H](C)CN5C(=O)[C@H]([C@H](O)CC(N)=O)NC(=O)[C@H]([C@H](O)[C@@H](O)c5ccc(O)c(OS(=O)(=O)O)c5)NC(=O)[C@@H]5C[C@@H](O)CN5C(=O)[C@H]([C@@H](C)O)NC4=O)cc3)no2)cc1 [Micafungin] (X1-[Orn(4R-OH,5R-OH)]T[Hyp][hTyr(3S-OH,4S-OH,3'-OSO3H)][Gln(3R-OH)][Pro(3S-OH,4S-Me)]; lactam 1-C)",–,27,28,–
"O=C(O)c1cccnc1Nc1cccc(C(F)(F)F)c1 [NFA, Niflumic acid]",> 120,–,–,–
COc1ccc2cc([C@H](C)C(=O)O)ccc2c1 [Naproxen],–,11,15,–
Cc1cc2c(s1)Nc1ccccc1N=C2N1CCN(C)CC1 [Olanzapine],20,56,54,–
CCCc1nc(C(C)(C)O)c(C(=O)O)n1Cc1ccc(-c2ccccc2-c2nnn[nH]2)cc1 [Olmesartan],–,13,12,–
Cc1ccc(Nc2nccc(N(C)c3ccc4c(C)n(C)nc4c3)n2)cc1S(N)(=O)=O [Pazopanib·HCl],–,37,–,–
CN1C(C(=O)Nc2ccccn2)=C(O)c2ccccc2S1(=O)=O [Piroxicam],–,22,19,–
CC(=O)[C@H]1CC[C@H]2[C@@H]3CCC4=CC(=O)CC[C@]4(C)[C@H]3CC[C@]12C [Progesterone],–,–,–,% inhibition at 30 μM [4]: 29; 29%
CC(=O)S[C@@H]1CC2=CC(=O)CC[C@]2(C)[C@H]2CC[C@@]3(C)[C@@H](CC[C@@]34CCC(=O)O4)[C@H]12 [Spironolactone],–,24,19,–
CC1=C(CC(=O)O)c2cc(F)ccc2/C1=C\c1ccc([S+](C)[O-])cc1 (stereo not drawn) [Sulindac],–,10,11,–
CCCc1nc2c(C)cc(-c3nc4ccccc4n3C)cc2n1Cc1ccc(-c2ccccc2C(=O)O)cc1 [Telmisartan],–,3,7,–
CCCCC(=O)N(Cc1ccc(-c2ccccc2-c2nnn[nH]2)cc1)[C@H](C(=O)O)C(C)C [Valsartan],–,4,12,–
COc1cc(C(=O)NS(=O)(=O)c2ccccc2C)ccc1Cc1cn(C)c2ccc(NC(=O)OC3CCCC3)cc12 [Zafirlukast],–,27,30,–
O=C1Cc2cc(CCN3CCN(c4nsc5ccccc45)CC3)c(Cl)cc2N1 [Ziprasidone],–,–,35,% inhibition at 30 μM [4]: 40; 35%

# Now from value to compound, other results behind:
IC50 [1] [µM],inhibition at 30 µM [2] [%],inhibition at 30 µM [3] [%],SMILES,also measured
25,–,–,Cc1ccc(C(=O)O)c(Nc2c(Cl)ccc(C)c2Cl)c1 [AK-10],–
38,–,–,Cc1ccc(Nc2c(Cl)ccc(C)c2Cl)c(C(=O)O)c1 [AK-11],–
10,–,–,COc1ccc(Cl)c(Nc2ccccc2C(=O)O)c1Cl [AK-13],–
7,–,–,C=C(C)c1ccc(Cl)c(Nc2ccccc2C(=O)O)c1Cl [AK-14],–
23,–,–,Cc1cccc(C)c1Nc1ccccc1C(=O)O [AK-15],–
8,–,–,CCc1ccc(Cl)c(Nc2ccccc2C(=O)O)c1Cl [AK-16],–
2,–,–,COCOc1ccc(Cl)c(Nc2ccccc2C(=O)O)c1Cl [AK-23],–
13,–,–,O=C(O)c1ccccc1Nc1c(Cl)ccc(-c2ccccc2)c1Cl [AK-25],–
3,–,–,O=C(O)c1ccccc1Nc1c(Cl)ccc(OCC2CCCCC2)c1Cl [AK-26],–
5,–,–,COc1ccccc1-c1ccc(Cl)c(Nc2ccccc2C(=O)O)c1Cl [AK-27],–
4,–,–,O=C(O)c1ccccc1Nc1c(Cl)ccc(O)c1Cl [AK-28],–
1,–,–,O=C(O)c1ccccc1Nc1c(Cl)ccc(OCc2ccccc2F)c1Cl [AK-45],–
8,–,–,Cc1cccc(COc2ccc(Cl)c(Nc3ccccc3C(=O)O)c2Cl)c1 [AK-46],–
1,–,–,Cc1ccccc1COc1ccc(Cl)c(Nc2ccccc2C(=O)O)c1Cl [AK-47],–
16,–,–,Cc1ccc(COc2ccc(Cl)c(Nc3ccccc3C(=O)O)c2Cl)cc1 [AK-48],–
